From BindingDB's records for doi:10.7270/Q2Q52N1X (Vanderbilt Screening Center for GPCRs, Ion Channels and …, 2009) come the findings set out here.

pEC50: −log10 of the molar value.

For the assay, the target named is T1, Solute carrier family 12 member 5 (Homo sapiens, UniProt Q9H2X9).
T1 sequence (Q9H2X9 whole entry): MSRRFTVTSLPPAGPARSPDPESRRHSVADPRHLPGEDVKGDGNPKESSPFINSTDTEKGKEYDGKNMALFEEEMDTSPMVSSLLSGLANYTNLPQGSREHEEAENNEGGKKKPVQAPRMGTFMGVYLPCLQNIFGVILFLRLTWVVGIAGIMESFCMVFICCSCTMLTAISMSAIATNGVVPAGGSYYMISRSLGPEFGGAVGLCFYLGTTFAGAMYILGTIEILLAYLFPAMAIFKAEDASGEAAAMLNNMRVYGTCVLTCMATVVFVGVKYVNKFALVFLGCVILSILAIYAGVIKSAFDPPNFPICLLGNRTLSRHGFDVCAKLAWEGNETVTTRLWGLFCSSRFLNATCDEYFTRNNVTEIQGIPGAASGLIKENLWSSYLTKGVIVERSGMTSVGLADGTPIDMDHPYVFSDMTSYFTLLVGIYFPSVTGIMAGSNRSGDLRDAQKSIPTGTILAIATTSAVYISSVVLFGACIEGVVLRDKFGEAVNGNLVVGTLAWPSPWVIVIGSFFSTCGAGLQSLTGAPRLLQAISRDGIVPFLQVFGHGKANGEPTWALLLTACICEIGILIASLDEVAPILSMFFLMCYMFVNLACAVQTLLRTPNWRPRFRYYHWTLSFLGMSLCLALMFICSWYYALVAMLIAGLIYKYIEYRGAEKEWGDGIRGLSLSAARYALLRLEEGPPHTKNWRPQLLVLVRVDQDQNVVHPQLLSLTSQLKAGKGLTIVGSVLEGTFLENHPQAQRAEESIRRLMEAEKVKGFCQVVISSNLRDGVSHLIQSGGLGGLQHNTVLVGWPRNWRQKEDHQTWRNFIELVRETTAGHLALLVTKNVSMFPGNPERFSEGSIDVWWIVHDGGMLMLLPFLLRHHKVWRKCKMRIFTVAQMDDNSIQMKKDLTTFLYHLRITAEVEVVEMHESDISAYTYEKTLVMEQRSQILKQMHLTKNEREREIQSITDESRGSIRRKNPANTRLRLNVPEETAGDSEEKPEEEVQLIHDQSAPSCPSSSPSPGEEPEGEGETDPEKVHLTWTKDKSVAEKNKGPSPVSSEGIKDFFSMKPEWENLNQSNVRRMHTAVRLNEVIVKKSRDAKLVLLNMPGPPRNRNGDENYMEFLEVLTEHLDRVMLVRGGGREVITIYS
The assay is described as follows: KCC2 modulator potency by thallium flux, dose response, cell-based, HEK293 KCC2, FluoZin-2 fluorescence (AID 1736).

Where [1] appears, read: inactive by the depositor's call.

As usually defined, the pEC50 is the EC50 on a negative log10 scale, so that one unit is a factor of ten. The molecule `O=C(O)CC/C(=C\c1ccc(N2CCOCC2)c([N+](=O)[O-])c1)c1nc2ccccc2s1` [(E)-4-(1,3-benzothiazol-2-yl)-5-(4-morpholin-4-yl-3-nitro-phenyl)pent-4-enoic acid] showed a pEC50 of 1.09.

For the molecule `COc1ccccc1N1CCN(C(=S)NC(=O)/C=C/c2ccccc2)CC1` [(E)-N-[4-(2-Methoxy-phenyl)-piperazine-1-carbothioyl]-3-phenyl-acrylamide], the pEC50 was 3.96.

The molecule `O=C(CNC(=O)/C(=C\c1ccc(Br)cc1)NC(=O)c1ccccc1)OCc1ccccc1` [(phenylmethyl) 2-[[(E)-2-benzamido-3-(4-bromophenyl)prop-2-enoyl]amino]ethanoate] had a pEC50 of 5.92.

`O=C(CNC(=O)/C(=C/c1ccccc1)NC(=O)c1ccc(Br)cc1)OCc1ccccc1` [(phenylmethyl) 2-[[(Z)-2-[(4-bromophenyl)carbonylamino]-3-phenyl-prop-2-enoyl]amino]ethanoate] showed a pEC50 of 6.17.

Take `CCCCNc1cc(C(=O)O)cc(S(N)(=O)=O)c1Oc1ccccc1` [Fordiuran]: the pEC50 was 8.97.

`COc1ccccc1-n1cnc2cc(NS(=O)(=O)c3ccccc3)ccc21` [MLS000032522] showed a pEC50 of 4.00.

With `Cc1ccc2c(c1)nnn2C1CCN(S(=O)(=O)c2cccc(S(=O)(=O)N(C)C)c2)CC1` [MLS000033642], the pEC50 was 5.39.

The molecule `O=C(CSc1ncccc1-c1nc2ccccc2[nH]1)N1CCN(c2ccccc2F)CC1` [MLS000033700] had a pEC50 of 5.02.

`O=C(OC1CCc2ccccc2C1=O)c1ccccc1O` (centres undefined) [MLS000051417] showed a negative-log EC50 (pEC50) of 6.28.

The molecule `N#Cc1ccccc1NC(=O)CSc1nccn1CCc1ccccc1` [MLS000051858] gave a pEC50 of 4.90.

Under setting [1], `Cc1nnc(NC(=O)c2ccc3ccccc3c2)o1` [MLS000056450] gave a pEC50 of 4.07.

`O=C(Cn1nnc(-c2ccccc2-n2cnnn2)n1)NCc1ccccc1` [MLS000073516] had a pEC50 under setting [1] of 4.62.

On to `Cc1nonc1NC(=O)CSc1ccc(-c2ccccc2)nn1` [MLS000074514], for which the pEC50 is 5.95.

As for `O=C(NCc1cccs1)c1nc2c(nnn2Cc2ccc(F)cc2)c(=O)[nH]1` [MLS000074753], the pEC50 is 5.00.

The molecule `O=S(=O)(NCCc1ccccc1F)c1cccc(S(=O)(=O)N2CCOCC2)c1` [MLS000076090] showed a negative-log EC50 (pEC50) of 2.39.

For `CN(CC(=O)N1CC(=O)N(CCc2ccccc2)C(=O)C1)S(=O)(=O)c1cccc2nsnc12` [MLS000095099], the pEC50 under setting [1] is 2.64.

For the molecule `O=C(NCCc1csc(-c2ccccc2)n1)c1cccs1` [MLS000102716], the pEC50 is 5.13.

On to `O=C(Nc1ccc2oc(-c3ccccc3)nc2c1)c1ccncc1` [MLS000109492], for which the negative logarithm of the EC50 (pEC50) was 5.49.

For the molecule `CS(=O)(=O)N(CC(=O)N1CCN(c2ccccc2)CC1)c1cccc(Br)c1` [MLS000110474], the pEC50 was 5.61.

Under setting [1], `CC(=O)Nc1ccc(S(=O)(=O)N2CCN(C(C)CCc3ccccc3)CC2)cc1` (centres undefined) [MLS000110551] had a pEC50 of 4.17.

On to `CCC(Sc1nc(C)cc(=O)[nH]1)C(=O)Nc1sc2c(c1C#N)CCCC2` (centres undefined) [MLS000112919], for which the pEC50 was 4.59.

`Cn1c(C(=O)NCCCN2CCN(c3ccccc3F)CC2)cc2c(=O)n(C)c3ccccc3c21` [MLS000118127]: the pEC50 was 5.15.

For the molecule `Cn1c(C(=O)NCCN2CCN(c3ccccc3F)CC2)cc2c(=O)n(C)c3ccccc3c21` [MLS000118132], the pEC50 was 5.57.

`Cc1nn(C)c(C)c1C=C1SC(S)=NC1=O` [MLS000324943] showed a pEC50 of 5.82.

As for `O=C(Cc1csc(-c2ccccc2)n1)NCc1ccc(F)cc1` [MLS000336311], the pEC50 is 4.71.

Molecule `CCN(CC)S(=O)(=O)c1ccc(NC(=O)CSc2ncnc3ccccc23)cc1` [MLS000393282] had a pEC50 of 5.29.

`CNc1ccc(/C=C(\CCC(=O)O)c2nc3ccccc3s2)cc1[N+](=O)[O-]` [MLS000394200] had a pEC50 of 5.13.

Turning to `N#C/C(=C\c1ccc(-c2cccc([N+](=O)[O-])c2)o1)C(=O)Nc1nc(-c2cccs2)cs1` [MLS000402444], the pEC50 under setting [1] was 5.04.

In turn, `CC1Cc2ccccc2N1C(=O)CN(C)S(=O)(=O)c1cccc2cccnc12` (centres undefined) [MLS000523063] gave a pEC50 of 4.71.

Turning to `CS(=O)(=O)N(CC(=O)N1CCN(c2ccc(F)cc2)CC1)c1ccc(F)c(Cl)c1` [MLS000531433], the pEC50 was 5.12.

With `Cc1ccc(C(=O)Nc2nc(=O)n(C(=O)c3ccccc3Cl)s2)cc1` [MLS000540480], the pEC50 was 5.41.

Molecule `O=C(NNc1nc(-c2ccccc2)cs1)c1ccccc1` [MLS000547345] gave a pEC50 of 7.53.

Consider `O=[N+]([O-])c1ccccc1C=C[CH+][N-]n1c(-c2ccc(Cl)cc2)n[nH]c1=S` [MLS000555506], for which the pEC50 is 4.85.

`O=C(CC(Cc1ccccc1)c1ccco1)NC1CCCCC1` (centres undefined) [MLS000556612] had a negative-log EC50 (pEC50) of 5.57.

The molecule `CC(=NNC(=O)c1ccc(Br)cc1)c1ccccc1` [MLS000558629] showed a negative logarithm of the EC50 (pEC50) of 5.57.

As for `Cc1nn2c(nc(O)c3ccccc32)c1C=O` [MLS000565386], the negative-log EC50 (pEC50) was 4.39.

Take `Cc1nn(-c2ccc(F)cc2)c(C)c1NS(=O)(=O)c1ccc2ccccc2c1` [MLS000565745]: the pEC50 was 5.70.

`O=C(O)/C=C/c1cn(Cc2ccccc2)nc1-c1ccccc1` [MLS000567315] gave a pEC50 of 1.86.

For `CNC(=O)/C(=C\C=C\c1ccccc1)NC(=O)c1ccc([N+](=O)[O-])cc1` [MLS000570424], the pEC50 is 5.49.

The molecule `CCc1ccc(OCCNC(=O)c2ccccc2SCc2ccc(F)cc2)cc1` [MLS000577152] had a pEC50 of 6.52.

For the molecule `CCCC1=NN2C(=N)/C(=C\c3cc(C)n(-c4cc(C)cc(C)c4)c3C)C(=O)N=C2S1` [MLS000588586], the pEC50 is 5.12.

Take `O=C(CSc1ccc(-c2cccs2)nn1)Nc1ccccc1F` [MLS000621184]: the pEC50 is 5.66.

`COc1cccc(CNC(=O)CSc2ccc(-c3cccs3)nn2)c1` [MLS000621194] gave a pEC50 of 4.47.

`O=C(C=Cc1ccccc1)CC(=O)c1ccccc1O` [MLS000627068] gave a pEC50 of 4.91.

The molecule `O=C(NCc1nc(-c2ccccc2)cs1)c1ccccc1` [MLS000661971] showed a pEC50 of 5.12.

Turning to `CN(CC(=O)N1CCN(Cc2ccccc2)CC1)S(=O)(=O)c1cccc2nsnc12` [MLS000674627], the pEC50 was 6.02.

`O=C(CN(c1ccc2c(c1)OCCO2)S(=O)(=O)c1ccccc1)N1CCN(Cc2ccccc2)CC1` [MLS000693333] gave a pEC50 of 5.61.

On to `O=C(c1ccccc1SCc1ccc(F)cc1)N1CCOCC1` [MLS000712999], for which the negative-log EC50 (pEC50) was 5.05.

In the case of `O=C(NC1CCCC1)C(c1ccncc1)N(Cc1ccco1)C(=O)c1ccc(-c2ccccc2)[nH]1` (centres undefined) [MLS000718066], the negative-log EC50 (pEC50) was 5.20.

`O=C(CSc1ccc(-c2ccccc2)nn1)Nc1ccc2c(c1)OCCO2` [MLS000724887] gave a pEC50 of 4.51.

The molecule `CC(=O)NCC1CCCN(c2nc3nonc3nc2N(C)Cc2ccccc2)C1` (centres undefined) [MLS000731683] had a pEC50 of 5.77.

On to `CCc1cc(C(=O)N2CCCC(CNC(=O)c3ccc(-c4ccccc4)cc3)C2)no1` (centres undefined) [MLS000731765], for which the pEC50 is 5.37.

On to `CC(=O)NCCC(=O)N1CCCC(CNC(=O)c2ccc(-c3ccccc3)cc2)C1` (centres undefined) [MLS000733794], for which the pEC50 was 5.09.

On to `CSCCC(=O)N1CCCC(CNC(=O)c2ccc(-c3ccccc3)cc2)C1` (centres undefined) [MLS000733867], for which the pEC50 is 5.29.
